According to patent US20150105252A1, “SUBSTITUTED PYRAZOLES AS HERBICIDES” (E I DU PONT DE NEMOURS AND COMPANY, priority 2013, published 2015):

Experiments:
crabgrass, large [1] = test: Test A preemergence; assay type: in vivo, Digitaria sanguinalis
In short: (§1)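 Visual injury rating, 0–100 (0 no effect, 100 complete control), vs untreated controls ~10 days after treatment in greenhouse. Pre: directed soil spray on seeded loam/sand. Post: 2–10 cm plants, 1–2 leaf stage. Formulation: non-phytotoxic solvent mix + surfactant.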

morningglory [2] = test: Test A preemergence; assay type: in vivo, Ipomoea spp.
In short: as §1

velvetleaf [3] = test: Test A preemergence; assay type: in vivo, Abutilon theophrasti
In short: as §1

wheat = test: Test A preemergence; assay type: in vivo, Triticum aestivum; settings: preemergence
In short: as §1

crabgrass, large [4] = test: Test A postemergence; assay type: in vivo, Digitaria sanguinalis
In short: as §1

foxtail, giant = test: Test A postemergence; assay type: in vivo, Setaria faberii
In short: as §1

morningglory [5] = test: Test A postemergence; assay type: in vivo, Ipomoea spp.
In short: as §1

velvetleaf [6] = test: Test A postemergence; assay type: in vivo, Abutilon theophrasti
In short: as §1

sedge, umbrella = test: Test B flood; assay type: in vivo, Cyperus difformis; settings: 250 g ai/ha, visual rating on 0 to 100 scale (0 no effect, 100 complete control), 13 to 15 days
In short: (§2)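 Visual ratings (0 = no effect, 100 = complete control) versus untreated controls were taken 13–15 days after treatment of greenhouse plants. Treatment was added to paddy water held at 3 cm depth on 2-leaf-stage seedlings.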

barnyardgrass = test: Test B flood; assay type: in vivo, Echinochloa crus-galli; settings: 250 g ai/ha, visual rating on 0 to 100 scale (0 no effect, 100 complete control), 13 to 15 days
In short: as §2

galium = test: Test C preemergence; assay type: in vivo, Galium aparine; settings: for Plant response rating (scale of 0 to 100), Galium: Preemergence, 250 g ai/ha; for Galium plant response rating / Plant response rating, Galium: preemergence; for Plant response rating, Galium: scale 0 to 100, 0 = no effect, 100 = complete control
Source text: (§3) Seeds of plant species selected from blackgrass (Alopecurus myosuroides), ryegrass, Italian (Italian ryegrass, Lolium multiflorum), wheat (winter wheat, Triticum aestivum), galium (catchweed bedstraw, Galium aparine), corn (Zea mays), crabgrass, large (large crabgrass, Digitaria sanguinalis), foxtail, giant (giant foxtail, Setaria faberii), johnsongrass (Sorghum halepense), lambsquarters (Chenopodium album), morningglory (Ipomoea coccinea), nutsedge, yellow (yellow nutsedge, Cyperus esculentus), pigweed (redroot pigweed, Amaranthus retroflexus), ragweed (common ragweed, Ambrosia elation), soybean (Glycine max), barnyardgrass (Echinochloa crus-galli), oilseed rape (Brassica napus), waterhemp (common waterhemp, Amaranthus rudis), oat, wild (wild oat, Avena fatua), kochia (Kochia scoparia), Surinam grass (Brachiaria decumbens), foxtail, green (green foxtail, Setaria viridis), goosegrass (Eleusine indica), bromegrass, downy (downy bromegrass, Bromus tectorum), nightshade (eastern black nightshade, Solanum ptycanthum), cocklebur (common cocklebur, Xanthium strumarium), cupgrass, woolly (woolly cupgrass, Eriochloa villosa), bermudagrass (Cynodon dactylon), sunflower, (common oilseed sunflower, Helianthus annuus), Russian thistle (Salsola kali), and velvetleaf (Abutilon theophrasti) were planted into a blend of loam soil and sand and treated preemergence with test chemicals formulated in a non-phytotoxic solvent mixture which included a surfactant.
(§4) At the same time, plants selected from these crop and weed species and also chickweed (common chickweed, Stellaria media), canarygrass (littleseed canarygrass, Phalaris minor), and deadnettle (henbit deadnettle, Lamium amplexicaule), were planted in pots containing Redi-Earth® planting medium (Scotts Company, 14111 Scottslawn Road, Marysville, Ohio 43041) comprising spaghnum peat moss, vermiculite, wetting agent and starter nutrients and treated with postemergence applications of test chemicals formulated in the same manner. Plants ranged in height from 2 to 18 cm (1- to 4-leaf stage) for postemergence treatments. Treated plants and controls were maintained in a greenhouse for 13 to 15 days, after which time all species were compared to controls and visually evaluated. Plant response ratings, summarized in Table C, are based on a scale of 0 to 100 where 0 is no effect and 100 is complete control. A dash (-) response means no test result.

nutsedge, yellow = test: Test C preemergence; assay type: in vivo, Cyperus esculentus; settings: for Plant response rating (scale of 0 to 100), Nutsedge, Yellow: Preemergence, 250 g ai/ha; for Nutsedge, Yellow plant response rating / Plant response rating, Nutsedge, Yellow: preemergence; for Plant response rating, Nutsedge, Yellow: scale 0 to 100, 0 = no effect, 100 = complete control
Source text: as §3, §4

soybean = test: Test C preemergence; assay type: in vivo, Glycine max; settings: for Plant response rating (scale of 0 to 100), Soybean: Preemergence, 250 g ai/ha; for Soybean plant response rating / Plant response rating, Soybean: preemergence; for Plant response rating, Soybean: scale 0 to 100, 0 = no effect, 100 = complete control
Source text: as §3, §4

ryegrass, Italian = test: Test C preemergence; assay type: in vivo, Lolium multiflorum; settings: for Plant response rating (scale of 0 to 100), Ryegrass, Italian: Preemergence, 250 g ai/ha; for Ryegrass, Italian plant response rating / Plant response rating, Ryegrass, Italian: preemergence; for Plant response rating, Ryegrass, Italian: scale 0 to 100, 0 = no effect, 100 = complete control
Source text: as §3, §4

oilseed rape = test: Test C preemergence; assay type: in vivo, Brassica napus; settings: for Plant response rating (scale of 0 to 100), Oilseed Rape: Preemergence, 250 g ai/ha; for Oilseed Rape plant response rating / Plant response rating, Oilseed Rape: preemergence; for Plant response rating, Oilseed Rape: scale 0 to 100, 0 = no effect, 100 = complete control
Source text: as §3, §4

[7] = Preemergence, 500 g ai/ha, 0 to 100 scale, 0 no effect, 100 complete control
[8] = preemergence, 125 g ai/ha, visual injury, 0 to 100 scale, approx. 10 days
[9] = 125 g ai/ha, visual injury, 0 to 100 scale, approx. 10 days
[10] = 500 g ai/ha, visual injury after approx. 10 days, 0 to 100 scale (0 no effect, 100 complete control)
[11] = Postemergence, 500 g ai/ha, visual rating after approx. 10 days, 0 to 100 scale (0 no effect, 100 complete control)
[12] = postemergence, 125 g ai/ha, about 10 days, visual rating on 0 to 100 scale (0 no effect, 100 complete control)
[13] = 31 g ai/ha, visual rating, scale 0 to 100 (0 no effect, 100 complete control), 13 to 15 days
[14] = 125 g ai/ha, scale 0 to 100, 0 is no effect, 100 is complete control
[15] = preemergence, 500 g ai/ha, visual injury after approx. 10 days, 0 to 100 scale (0 no effect, 100 complete control)
[16] = Postemergence, 500 g ai/ha, 0 to 100 scale (0 no effect, 100 complete control)
[17] = 62 g ai/ha, scale 0 to 100 (0 no effect, 100 complete control), 13 to 15 days

| Structure (SMILES) | Crabgrass, Large plant response rating (crabgrass, large [1]; [8]) | Morningglory plant response rating (morningglory [2]; [8]) | Velvetleaf plant response rating (velvetleaf [3]; [8]) | Wheat plant response rating (wheat; [9]) | Wheat plant response rating (wheat; [10]) | Crabgrass, Large plant response rating (crabgrass, large [4]; [12]) | Foxtail, Giant plant response rating (foxtail, giant; [12]) | Morningglory plant response rating (morningglory [5]; [12]) | Velvetleaf plant response rating (velvetleaf [6]; [12]) | Plant response rating, Sedge, Umbrella (sedge, umbrella) | Plant response rating, Barnyardgrass (barnyardgrass) | Plant response rating (scale of 0 to 100), Galium (galium) | Galium plant response rating (galium; [13]) | Galium plant response rating (galium; [14]) | Plant response rating (scale of 0 to 100), Nutsedge, Yellow (nutsedge, yellow) | Nutsedge, Yellow plant response rating (nutsedge, yellow; [13]) | Nutsedge, Yellow plant response rating (nutsedge, yellow; [14]) | Plant response rating (scale of 0 to 100), Soybean (soybean) | Soybean plant response rating (soybean; [13]) | Foxtail, Giant plant response rating (foxtail, giant; [16]) | also measured |
| --- | --- | --- | --- | --- | --- | --- | --- | --- | --- | --- | --- | --- | --- | --- | --- | --- | --- | --- | --- | --- | --- |
| CCc1cc(C(=O)NCC(F)(F)F)nn1Cc1ccnc(C(F)(F)F)c1 [Compound 78, 5-ethyl-N-(2,2,2-trifluoroethyl)-1-[[(2-trifluoromethyl)-4-pyridinyl]methyl]-1H-pyrazole-3-carboxamide] | 100 | 100 | 100 | 50 | 100 | 90 | 90 | 100 | 100 | 80 | 50 | 100 | 85 | 100 | 98 | 70 | 98 | 98 | 98 | – | Crabgrass, Large plant response rating (crabgrass, large [1]; [7]): 100; Morningglory plant response rating (morningglory [2]; [7]): 100; Velvetleaf plant response rating (velvetleaf [3]; [7]): 100; Crabgrass, Large plant response rating (crabgrass, large [4]; [11]): 100; Foxtail, Giant plant response rating (foxtail, giant; [11]): 100; Morningglory plant response rating (morningglory [5]; [11]): 100; Velvetleaf plant response rating (velvetleaf [6]; [11]): 100; Plant response rating, Galium (galium; 62 g ai/ha, 13 to 15 days): 100; Plant response rating, Nutsedge, Yellow (nutsedge, yellow; 62 g ai/ha, 13 to 15 days): 85; Plant response rating, Soybean (soybean; 62 g ai/ha, 13 to 15 days): 98; Soybean plant response rating (soybean; [14]): 98 |
| CCCc1cc(C(=O)NCC)nn1Cc1ccnc(C(F)(F)F)c1 [Compound 95] | 100 | 100 | 90 | 70 | 100 | 90 | 100 | 90 | 90 | 75 | 40 | 100 | 100 | 100 | 90 | 50 | 85 | 98 | 80 | – | Crabgrass, Large plant response rating (crabgrass, large [1]; [15]): 100; Morningglory plant response rating (morningglory [2]; [15]): 100; Velvetleaf plant response rating (velvetleaf [3]; [15]): 100; Crabgrass, Large plant response rating (crabgrass, large [4]; [11]): 100; Foxtail, Giant plant response rating (foxtail, giant; [11]): 100; Morningglory plant response rating (morningglory [5]; [11]): 100; Velvetleaf plant response rating (velvetleaf [6]; [11]): 100; Plant response rating (scale of 0 to 100), Ryegrass, Italian (ryegrass, Italian): 100; Ryegrass, Italian plant response rating (ryegrass, Italian; [13]): 50; Plant response rating, Ryegrass, Italian (ryegrass, Italian; 62 g ai/ha, 13 to 15 days): 85; Ryegrass, Italian plant response rating (ryegrass, Italian; [14]): 95; Plant response rating, Galium (galium; 62 g ai/ha, 13 to 15 days): 100; Plant response rating, Nutsedge, Yellow (nutsedge, yellow; 62 g ai/ha, 13 to 15 days): 80; Plant response rating, Soybean (soybean; 62 g ai/ha, 13 to 15 days): 90; Soybean plant response rating (soybean; [14]): 95; Plant response rating (scale of 0 to 100), Oilseed Rape (oilseed rape): 100; Oilseed Rape plant response rating (oilseed rape; [13]): 100; Plant response rating, Oilseed Rape (oilseed rape; 62 g ai/ha, 13 to 15 days): 100; Oilseed Rape plant response rating (oilseed rape; [14]): 100 |
| CCONC(=O)c1cc(CC)n(Cc2cc(C(F)(F)F)no2)n1 [Compound 125] | – | – | – | – | – | – | 30 | – | – | 50 | 20 | 90 | 80 | 100 | 55 | 0 | 15 | 15 | 5 | 90 | Plant response rating (scale of 0 to 100), Ryegrass, Italian (ryegrass, Italian): 95; Ryegrass, Italian plant response rating (ryegrass, Italian; [13]): 0; Ryegrass, Italian plant response rating (ryegrass, Italian; [17]): 30; Ryegrass, Italian plant response rating (ryegrass, Italian; [14]): 20; Galium plant response rating (galium; [17]): 85; Nutsedge, Yellow plant response rating (nutsedge, yellow; [17]): 5; Soybean plant response rating (soybean; [17]): 5; Soybean plant response rating (soybean; [14]): 10; Plant response rating (scale of 0 to 100), Oilseed Rape (oilseed rape): 95; Oilseed Rape plant response rating (oilseed rape; [13]): 30; Oilseed Rape plant response rating (oilseed rape; [17]): 60; Oilseed Rape plant response rating (oilseed rape; [14]): 95 |
| CCOc1cc(C(=O)NC2CC2)nn1Cc1ccnc(OC(F)F)c1 [Compound 133] | – | – | – | – | – | – | 100 | – | – | 90 | 40 | 100 | – | – | 85 | 20 | – | 95 | 50 | 100 | Plant response rating (scale of 0 to 100), Ryegrass, Italian (ryegrass, Italian): 95; Ryegrass, Italian plant response rating (ryegrass, Italian; [13]): 35; Ryegrass, Italian plant response rating (ryegrass, Italian; [17]): 85; Plant response rating, Ryegrass, Italian (ryegrass, Italian; 125 g ai/ha, 13 to 15 days): 90; Galium plant response rating (galium; [17]): 95; Plant response rating, Galium (galium; 125 g ai/ha, 13 to 15 days): 98; Nutsedge, Yellow plant response rating (nutsedge, yellow; [17]): 25; Plant response rating, Nutsedge, Yellow (nutsedge, yellow; 125 g ai/ha, 13 to 15 days): 70; Soybean plant response rating (soybean; [17]): 40; Plant response rating, Soybean (soybean; 125 g ai/ha, 13 to 15 days): 85; Plant response rating (scale of 0 to 100), Oilseed Rape (oilseed rape): 100; Oilseed Rape plant response rating (oilseed rape; [13]): 60; Oilseed Rape plant response rating (oilseed rape; [17]): 100; Plant response rating, Oilseed Rape (oilseed rape; 125 g ai/ha, 13 to 15 days): 100 |
| CCCc1cc(C(=O)NCC(F)(F)F)nn1Cc1cc(C(F)(F)F)nn1C [Compound 138] | 100 | 90 | 100 | 80 | 90 | 100 | 100 | 80 | 60 | 90 | 50 | – | – | – | – | – | – | – | – | 100 | Crabgrass, Large plant response rating (crabgrass, large [1]; [15]): 100; Morningglory plant response rating (morningglory [2]; [15]): 100; Velvetleaf plant response rating (velvetleaf [3]; [15]): 100; Crabgrass, Large plant response rating (crabgrass, large [4]; [16]): 100; Morningglory plant response rating (morningglory [5]; [16]): 100; Velvetleaf plant response rating (velvetleaf [6]; [16]): 100 |
| CCc1cc(C(=O)NCC(F)(F)F)nn1Cc1cc(OC(F)F)nn1C [Compound 206] | – | – | – | – | – | – | 0 | – | – | 0 | 0 | – | – | – | – | – | – | – | – | 80 | – |
